# Entries after “also recorded” stand apart in the source; their conditions may differ.
# Experiments:
# [1] = Toxicity/tolerance of sodium stibogluconate in nude mice; assay type: in vivo
# Method: The dosage of sodium stibogluconate corresponds to approximately 440 mg Sb/kg body weight (average mouse body weight 27 g), substantially higher than the standard therapeutic dose of 20 mg Sb/kg and the high dose (143 mg Sb/kg) that was clinically used by accident without serious toxicity. This dose of sodium stibogluconate was based on a previous observation in a pilot study that mice could tolerate daily dose of 20 mg Sb (approximately 700-800 mg Sb/kg). […] In light of the relatively rapid rate of clearance of the drug in vivo, 440 mg Sb/kg dosage was used to ensure the detection of the effectiveness of the drug for this initial study.
# As discussed above, the dosage of sodium stibogluconate used for the treatment of nude mice was 12 mg Sb/mouse, s.c., daily (or approximately 440 mg/kg body weight). This dosage is much higher than the standard dose for leishmaniasis (20 mg Sb/kg, daily). As an initial step to assess the toxicity of such a high dosage of sodium stibogluconate in nude mice, the effect of sodium stibogluconate on the viability and body weights of WM9 xenografts nude mice during the 25 day period of the study was determined.
# Baf3 cells = experiment: Cellular protein tyrosine phosphorylation in Baf3 cells (Western blot); assay type: cell-based, murine; conditions: IL-3-deprived Baf3 cells
# Method: For induction of cellular protein phosphorylation by sodium stibogluconate or pervanadate, Baf3 cells were incubated in 0.1% FCS-RPMI 1640 medium at 37° C. for 16 hours. The cells were then washed twice in RPMI 1640 medium and incubated with sodium stibogluconate or pervanandate (0.1 mM) for various times prior to termination by lysing cells in cold lysis buffer (50 mM Tris, pH 7.4; 150 mM NaCl; 0.2 mM Na3VO4; 20 mm NaF; 1% Nonidet P-40; 2 mM PMSF; 20 µg/ml of Aprotinin and 1 mM of sodium molybdic acid). To determine the effect of sodium stibogluconate or potassium antimonyl tartrate on IL-3-induced Jak/Stat phosphorylation, Baf3 cells were deprived of the growth factor for 16 hours in 0.1% FCS RPMI 1640 medium and then incubated with or without sodium stibogluconate or potassium antimonyl tartrate for 10 minutes. IL-3 was next added to the cell suspension and incubated for various times. The Cells were then harvested and lysed in cold lysis buffer at 4° C. for 45 minutes. Total cell lysates (TCL) were separated in SDS-PAGE gels, blotted onto nitrocellulose membrane (Schleicher & Schuell), probed with specific antibodies and detected using an enhanced chemiluminescence kit (ECL, Amersham, Arlington Heights, Ill.).
# intracellular Flag-PRL-2 = target: T1, intracellular Flag-PRL-2 (Homo sapiens, UniProt Q12974); experiment: Immunocomplex PTPase assay, Flag-PRL-2 NIH3T3 transfectants; assay type: cell-based, mouse
# T1 construct: expressed in transfected cells; host or cells: NIH3T3 transfectants, pBabepuro vector
# Method: Immunocomplex PTPase assays were performed to assess the effects of sodium stibogluconate on intracellular PTPases. Cells were untreated or treated with sodium stibogluconate for 5 minutes, washed with fresh medium and then lysed in cold lysis buffer (50 mM Tris, pH 7.4; 150 mM NaCl; 1% NP40; 2 mM PMSF; 20, g/ml of Aprotinin). The lysates were incubated with an anti-Flag antibody in immunoprecipitation assays. The immunocomplexes were collected with protein G sepharose beads (Pharmacia) and washed in cold lysis buffer for 4 times. […] 100 µL of malachite green solution (UBI) was added to each reaction prior to measurement of OD660 to quantify the amounts of free phosphate cleaved by the PTPases from the peptide substrate (Pathak et al., J. Imumol. 167, 3391 (2001)). The remaining 10% contents of individual samples were analyzed by SDS-PAGE/Western blotting to quantify the relative amounts of the phosphatase proteins. […]
# The effects of sodium stibogluconate on intracellular PTPases were assessed using NIH3T3 or WM9 transfectants. […]
# NB4 cells = experiment: NB4 cell cycle analysis; assay type: cell-based, human; conditions: 3 days; sodium stibogluconate 250 μg/ml, ATRA 1 μM
# Method: The cell cycle was analyzed by flow cytometry after 3 days of culture of NB4 cells in the absence or presence of sodium stibogluconate (250 µg/ml) or ATRA (1 μM). Briefly, the cells were fixed in cold ethanol and incubated for 30 minutes at 4° C. in the dark with a solution of 50 […], 1 mg/ml RNase and 0.1% NP-40. Analysis was performed immediately after staining using the CELLFIT program (Becton Dickinson, Mountain View, Calif.).
# T1 sequence (Q12974 whole entry): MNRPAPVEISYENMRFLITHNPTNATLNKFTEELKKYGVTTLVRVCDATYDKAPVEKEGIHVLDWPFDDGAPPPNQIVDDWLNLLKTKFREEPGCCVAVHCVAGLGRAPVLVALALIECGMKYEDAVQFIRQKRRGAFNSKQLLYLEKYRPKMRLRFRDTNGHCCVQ
smiles,measurement,setting,value
O.O.O.O.O.O.O.O.O.O=C([O-])[C@@H]1[O][Sb]2([O-])([O][Sb]34([OH])[O][C@H]([C@H](O)CO)[C@H]([O]3)[C@H](C(=O)[O-])[O]4)[O][C@H]([C@H](O)CO)[C@@H]1[O]2.[Na+].[Na+].[Na+] [sodium stibogluconate],tolerability,[1]; 12 mg Sb daily (440 mg Sb/kg daily),well tolerated with no serious side effects
same,tolerated daily dose in mice,[1]; pilot study,20 mg Sb
same,tolerated daily dose in mice per body weight,[1]; pilot study,700-800 mg Sb/kg
same,internal organs on dissection,[1]; two mice from each group,no apparent abnormality of the internal organs
same,survival of WM9-inoculated nude mice,"[1]; until day 25, 4 mice/group",survived
same,cellular protein tyrosine phosphorylation,Baf3 cells,induced protein tyrosine phosphorylation
same,PTPase activity of Flag-PRL-2 immunocomplexes from treated cells,intracellular Flag-PRL-2; 5 min treatment,lack of PTPase activity; also recorded: markedly reduced PTPase activity
same,time for full removal of effect on intracellular PRL-2 activity,intracellular Flag-PRL-2; brief treatment,at least 24 hours
same,NB4 cell cycle effect,NB4 cells,significant increase of cells at S phase

# Source: US20080226596A1, “Therapeutic compositions and methods useful in treating hepatitis” (priority 2006, published 2008)
